Test results: US20230381280A1, “NEW DOSAGE REGIMEN FOR INHALED VASOACTIVE INTESTINAL POLYPEPTIDE” (priority 2020, published 2023)

Test system: COVID-19 pulmonary involvement

In the case of `CC[C@H](C)[C@H](NC(=O)[C@H](CO)NC(=O)[C@H](CC(N)=O)NC(=O)[C@H](CC(C)C)NC(=O)[C@H](Cc1ccc(O)cc1)NC(=O)[C@H](CCCCN)NC(=O)[C@H](CCCCN)NC(=O)[C@@H](NC(=O)[C@H](C)NC(=O)[C@H](CCSC)NC(=O)[C@H](CCC(N)=O)NC(=O)[C@H](CCCCN)NC(=O)[C@H](CCCNC(=N)N)NC(=O)[C@H](CC(C)C)NC(=O)[C@H](CCCNC(=N)N)NC(=O)[C@@H](NC(=O)[C@H](Cc1ccc(O)cc1)NC(=O)[C@H](CC(N)=O)NC(=O)[C@H](CC(=O)O)NC(=O)[C@@H](NC(=O)[C@H](Cc1ccccc1)NC(=O)[C@@H](NC(=O)[C@H](C)NC(=O)[C@H](CC(=O)O)NC(=O)[C@H](CO)NC(=O)[C@@H](N)Cc1c[nH]cn1)C(C)C)[C@@H](C)O)[C@@H](C)O)C(C)C)C(=O)N[C@@H](CC(C)C)C(=O)N[C@@H](CC(N)=O)C(N)=O` [Aviptadil], the “Entering Intensive Care (%)” value (Age >=60, treatment group) is reported as 25% and the Tolerability (human, in vivo) is reported as “well tolerated”.
